Measured values from PMC3698108, “Structural and bioactive studies of terpenes and cyclopeptides from the Genus Rubia” (Chemistry Central Journal, 2013).
Entries after “also recorded” stand apart in the source; their conditions may differ.

Tests used:
STAT3 = details: cited from earlier work
renal aldose reductase = details: cited from earlier work
four cell lines = details: cited from earlier work
[1] = system: human immunodeficiency virus (HIV-1) protease; design: method as in PMID 8759159; details: cited from earlier work
TRAIL-induced apoptosis = details: cited from earlier work
[2] = system: Vancomycin-Resistant Enterococci; details: cited from earlier work; for antimicrobial activities: weaker than clinical antimicrobial drugs
glyoxalase I = details: cited from earlier work
[3] = design: method as in PMID 20188082; details: mice; cited from earlier work
HT-29, MCF-7 and HepG2 = system: HT-29, MCF-7 and HepG2; design: method as in PMID 18239313; details: cited from earlier work
DNA topoisomerase II = system: DNA topoisomerase II; design: method as in PMID 18239313; details: cited from earlier work
[4] = system: A549, SK-OV-3, SK-MEL-2, MES-SA and HCT-15; design: method as in PMID 15089031; details: cited from earlier work
[5] = system: NO production from LPS-activated macrophages; design: method as in PMID 12762798; details: cited from earlier work
HT-29 = details: cited from earlier work
platelet aggregation = system: platelet aggregation; design: method as in PMID 12350148; details: cited from earlier work
A549, Hela and SMMC-7721 = system: A549, Hela and SMMC-7721; design: method as in PMID 21973054; details: data not very satisfactory; cited from earlier work
P-388 = details: cited from earlier work; for cytotoxicity against P-388 IC50: moderate cytotoxicity
[6] = system: RAW 264.7 murine macrophages; details: cited from earlier work
P388 = details: cited from earlier work
HL-60 cells = system: HL-60 cells; design: method as in doi:10.1016/j.phytol.2012.02.014; details: much weaker than RA-XXIV and RA-VII; cited from earlier work
iNOS = system: iNOS; design: method as in PMID 12808242; details: cited from earlier work
11 cancer cell lines = details: SRB assay; cited from earlier work

## COC(=O)CC[C@@H]1NC(=O)[C@@H](C)NC(=O)[C@@H]2Cc3ccc(O)c(c3)Oc3ccc(cc3)C[C@@H](C(=O)N2C)N(C)C(=O)[C@H](C)NC(=O)[C@H](Cc2ccc(OC)cc2)N(C)C1=O
other
  melting point: 253 to 254 °C

## C[C@H]1[C@H](C)CC[C@]2(C(=O)O)CC[C@]3(C)C(=CC[C@@H]4[C@@]5(C)CC[C@H](O)C(C)(C)[C@@H]5CC[C@]43C)[C@H]12 [Compound 11, Ursolic acid]
STAT3
  STAT3 activation: novel blocker of STAT3 activation
Renal aldose reductase
  renal aldose reductase activity: markedly suppressed
Four cell lines
  apoptotic effects: markedly apoptotic effects
  cell adhesion: suppress cell adhesion
  production of VEGF and ICAM-1: reduce the production of VEGF and ICAM-1
[1]
  inhibition on HIV-1 protease: possess inhibition
TRAIL-induced apoptosis
  TRAIL-induced apoptosis: potentiated TRAIL-induced apoptosis
[2]
  toxicity: low toxicity
  antimicrobial activities: fairly high antimicrobial activities
Glyoxalase I
  activity of glyoxalase I: enhanced the activity

## CC1(C)CC[C@]2(C(=O)O)CC[C@]3(C)C(=CC[C@@H]4[C@@]5(C)CC[C@H](O)C(C)(C)[C@@H]5CC[C@]43C)[C@@H]2C1 [Compound 12, Oleanolic acid]
Renal aldose reductase
  renal aldose reductase activity: markedly suppressed
Four cell lines
  apoptotic effects: markedly apoptotic effects
  cell adhesion: suppress cell adhesion
  production of VEGF and ICAM-1: reduce the production of VEGF and ICAM-1
[3]
  glucose tolerance: improve glucose tolerance
  visceral adiposity: ameliorate visceral adiposity
HT-29, MCF-7 and HepG2
  cytotoxicity against HT-29, MCF-7 and HepG2: weak cytotoxicity
[2]
  toxicity: low toxicity
  antimicrobial activities: fairly high antimicrobial activities
Glyoxalase I
  activity of glyoxalase I: enhanced the activity
DNA topoisomerase II
  inhibitory activity against DNA topoisomerase II compared with DNA topoisomerase I: selective inhibitory activity

## CC(=O)OC1CCC2(C)C(CCC3(C)C2CC=C2C4CC(C)(C)CCC4(C=O)CCC23C)C1(C)C (stereo not drawn) [Compound 15, Oleanolic aldehyde acetate]
[4]
  bioactivities against A549, SK-OV-3, SK-MEL-2, MES-SA and HCT-15: potent bioactivities

## CC(C)[C@@H]1C[C@@H](O)[C@H]2[C@@]1(CO)CC[C@@]1(C)[C@H]3C(=CC[C@]21C)[C@@]1(C)CC[C@H](O)C(C)(C)[C@@H]1C[C@@H]3O [Compound 16, Rubiarbonol A]
[5]
  inhibition of NO production: inhibit NO production; also recorded: inhibitory activities on NO production
HT-29
  cytotoxicity against HT-29: relatively strong cytotoxicity
other
  melting point: 260 to 263 °C
Platelet aggregation
  effect on platelet aggregation at the high doses: promoted platelet aggregation
  effect on platelet aggregation at the lower concentrations: possessed antiplatelet aggregation activity

## CC(C)[C@@H]1C[C@@H](O)[C@H]2[C@@]1(C)CC[C@@]1(C)[C@H]3C(=CC[C@]21C)[C@@]1(C)CC[C@H](O)C(C)(C)[C@@H]1C[C@@H]3O [Compound 17, Rubiarbonol B]
Platelet aggregation; at 150 μM, among compounds 16, 17 and 25
  inhibition against arachidonic acid-induced and collagen-induced platelet aggregation: most potent inhibition

## CC(C)[C@@H]1C[C@@H](O)[C@H]2[C@@]1(CO)CC[C@@]1(C)[C@H]3C(=CC[C@]21C)[C@@]1(C)C[C@@H](O)[C@H](O)C(C)(C)[C@@H]1C[C@@H]3O [Compound 21, Rubiarbonol F]
[5]
  inhibition of NO production: inhibit NO production; also recorded: inhibitory activities on NO production

## CC(=O)OC[C@@]12CC[C@@]3(C)[C@H]4C(=CC[C@]3(C)[C@H]1[C@H](O)C[C@H]2C(C)C)[C@@]1(C)CCC(=O)C(C)(C)[C@@H]1C[C@@H]4O [Compound 27, Rubiarbonone C]
[5]
  inhibition of NO production: inhibit NO production; also recorded: inhibitory activities on NO production
other
  melting point: 98 to 100 °C

## CC(=O)OC[C@@]12CC[C@@]3(C)[C@H]4C(=CC[C@]3(C)[C@H]1[C@H](O)C[C@H]2C(C)C)[C@@]1(C)CC[C@H](O)C(C)(C)[C@@H]1C[C@@H]4O [Compound 42, Rubianol-c]
[5]
  inhibition of NO production: inhibit NO production; also recorded: inhibitory activities on NO production

## CC(=O)OC[C@@]12CC[C@@]3(C)[C@H]4C(=CC[C@]3(C)[C@H]1[C@H](O)C[C@H]2C(C)C)[C@@]1(C)C[C@@H](O)[C@H](O)C(C)(C)[C@@H]1C[C@@H]4O [Compound 43, Rubianol-d]
[5]
  efficacy of NO production inhibition compared with L-NMMA: equivalent to L-NMMA
  inhibition of NO production: exhibited the inhibition

## CC(C)[C@@H]1C[C@@H](O)[C@H]2[C@@]1(C)CC[C@@]1(C)C3=CC[C@H]4C(C)(C)[C@@H](O)CC[C@]4(C)C3=CC[C@]21C [Compound 54, Rubiyunnanol A]
A549, Hela and SMMC-7721
  inhibition on A549, Hela and SMMC-7721: had inhibition

## CC(C)[C@@H]1CC=C2[C@@]1(C)CC[C@@]1(C)[C@H]3C(=CC[C@]21C)[C@@]1(C)CC[C@H](O)C(C)(C)[C@@H]1C[C@@H]3O [Compound 55, Rubiyunnanol B]
A549, Hela and SMMC-7721
  inhibition on A549, Hela and SMMC-7721: had inhibition
other
  melting point: 247 to 248 °C

## CC(=O)O[C@@H]1C[C@@H](C(C)C)[C@]2(CO)CC[C@@]3(C)[C@H]4C(=CC[C@]3(C)[C@@H]12)[C@@]1(C)C=CC(=O)C(C)(C)[C@@H]1C[C@@H]4O [Compound 58, Rubiarbonone E 19-acetate]
A549, Hela and SMMC-7721
  inhibition on A549, Hela and SMMC-7721: had inhibition

## CC(=O)OC[C@@]12CC[C@@]3(C)[C@H]4C(=CC[C@]3(C)[C@H]1[C@H](O)C[C@H]2C(C)C)[C@@]1(C)CC[C@H](O[C@@H]2O[C@H](CO[C@@H]3O[C@H](CO)[C@@H](O)[C@H](O)[C@H]3O)[C@@H](O)[C@H](O)[C@H]2O)C(C)(C)[C@@H]1C[C@@H]4O [Compound 62, Rubiarboside G 28-acetate]
A549, Hela and SMMC-7721
  inhibition on A549, Hela and SMMC-7721: had inhibition

## COc1ccc(C[C@H]2C(=O)N[C@@H](C)C(=O)N(C)[C@H]3Cc4ccc(cc4)Oc4cc(ccc4OC)C[C@@H](C(=O)N[C@H](C)C(=O)N[C@@H](CCC(N)=O)C(=O)N2C)N(C)C3=O)cc1 [Compound 90, RA- XXIII]
P-388; P-388
  cytotoxicity against P-388 IC50: 160 mg/L

## COc1ccc(C[C@H]2C(=O)N[C@@H](C)C(=O)N(C)[C@H]3Cc4ccc(cc4)Oc4cc(ccc4O)C[C@@H](C(=O)N[C@H](C)C(=O)N[C@@H](CCC(N)=O)C(=O)N2C)N(C)C3=O)cc1 [Compound 91, RA- XXIV]
[6]
  activity against NO production in LPS: exhibited activity
P-388; P-388
  cytotoxicity against P-388 IC50: 480 mg/L

## COc1ccc(C[C@H]2C(=O)N[C@@H](C)C(=O)N(C)[C@H]3Cc4ccc(cc4)Oc4cc(ccc4OC)C[C@@H](C(=O)N[C@H](C)C(=O)N[C@@H](C)C(=O)N2C)N(C)C3=O)cc1 [Compound 104, RA-700]
P388
  activities against P388: medium activities

## O-seco-RA-XXIV [Compound 109]
HL-60 cells
  cytotoxic effects on HL-60 cells: exhibited cytotoxic effects

## RA- XVIII [Compound 85]
P-388; P-388
  cytotoxicity against P-388: 0.012 µg/mL

## RA- XXII [Compound 89]
P-388; RA-VII (74) as reference
  relative cytotoxicity against P388: less cytotoxic than 88

## RA-I [Compound 66]
[6]
  activity against NO production in LPS: exhibited activity

## RA-IX [Compound 76]
P388
  antitumour effect on P388: almost no antitumour activities

## RA-X [Compound 77]
P388
  antitumour effect on P388: strong antitumour effect

## RA-XII [Compound 79]
[6]
  activity against NO production in LPS: exhibited activity
iNOS
  effects on iNOS induction: potent effects
P388
  antitumor activity against P388: potent antitumor activity

## RC-18 [Compound 105]
P388
  activities against P388: medium activities

## RY-I [Compound 100]
[6]
  activity against NO production in LPS: exhibited activity

## Rubianol-e [Compound 44]
[5]
  efficacy of NO production inhibition compared with L-NMMA: equivalent to L-NMMA
  inhibition of NO production: exhibited the inhibition

## Rubiarbonone A [Compound 25]
Platelet aggregation
  effect on platelet aggregation at the high doses: promoted platelet aggregation
  effect on platelet aggregation at the lower concentrations: possessed antiplatelet aggregation activity

## Rubiyunnanin B [Compound 93]
11 cancer cell lines
  cytotoxicities against the 11 cancer cell lines: moderate cytotoxicities
